Reference: ChEMBL document CHEMBL6121012, “Chemical Basis of the Traditional Ayurvedic Detoxification Process of the Toxic Medicinal Plant Plumbago zeylanica” (J Nat Prod, 2025)

test: Cytotoxicity against human HepG2 cells assessed as reduction in cell viability incubated for 24 hrs by MTT assay; assay type: toxicity, cell-based

Structure (SMILES)	IC50 at 24 h [µM]
C[C@@H]1CC(=O)c2c(O)cccc2[C@H]1O	1000
C[C@@H]1CC(=O)c2c(O)cccc2[C@@H]1O	3000
CC1=CC(=O)c2c(O)cccc2C1=O [PLUMBAGIN]	14
